Tests used:
[1] = tested on: Mcl-1; test: Western blot, Mcl-1 protein levels in myeloma cell lines; type: cell-based
[2] = tested on: Hdm2; test: Western blot, Hdm2 levels in myeloma cells; type: cell-based
[3] = tested on: CTD of RNA polymerase II; test: Western blot, phosphorylation of CTD of RNA polymerase II in myeloma cells; type: cell-based; conditions: 60 mM DRB
Text: Arrow indicates cleaved form indicative of apoptosis.

[4] = target: Cdk9/cyclin T1 (Homo sapiens, UniProt P50750); conditions: CDK 9/Cyclin T (McClue et al., 2002); cited from earlier work
[5] = tested on: MDN; test: Induction of apoptosis by apo2.7 immunostaining; type: cell-based, human
Text: (§1) The induction of apoptosis at day 3 by apo2.7 was investigated by immunostaining.

[6] = tested on: XG-1; test: Induction of apoptosis by apo2.7 immunostaining; type: cell-based, human
Text: as §1

[7] = tested on: XG-6; test: Induction of apoptosis by apo2.7 immunostaining; type: cell-based, human
Text: as §1

[8] = tested on: myeloma cell population (high expression of CD38); test: Apoptosis in cells taken from a multiple myeloma patient (ex vivo); type: cell-based, human; set-up: dose or concentration left out as unconfirmed; conditions: […] μM CYC202, day 2, patient cells ex vivo
Text: (§2) Myeloma cells were identified by their high expression of CD38.
(§3) Myeloma cells were identified by their high expression of CD38. The number of apoptotic cells in the myeloma cell population was of 46% whereas only 4% of the non myeloma cell population was induced on apoptosis.

[9] = tested on: non myeloma cell population; test: as above; type: cell-based, human; set-up: dose or concentration left out as unconfirmed; conditions: […] μM CYC202, day 2, patient cells ex vivo
Text: as §2, §3

[10] = tested on: multiple myeloma cell lines; test: Apoptosis by TUNEL, flow cytometry; type: cell-based; conditions: 30 μM CYC202
Protocol: All cell lines were obtained from the DSMZ (Deutsche Sammlung von Mikroorganismen und Zellkulturen).
Cells were seeded onto 90 mm diameter plates. […] Cells were harvested at various time points after addition of the drug. After washing once in PBS, cells were fixed in ice-cold 70% v/v ethanol and stored for up to 2 weeks at −20° C. Cells were washed twice in PBS +1% w/v BSA to remove fixative and re-suspended in PBS containing 50 μg/ml propidium iodide and 50 μg/ml RnaseA. After incubation at room temperature for 20 min, cells were analysed using flow cytometry.
A Becton Dickinson LSR flow cytometer was used for these studies, in accordance with the manufacturers recommendations. […] Red fluorescence (575±26 nm) was acquired on a linear scale and pulse width analysis was used to exclude cell doublets and aggregates from the analysis. Cells with a DNA content of between 2 n and 4 n were designated as being in G1, S or G2/M phases of the cell cycle, as defined by the level of red fluorescence. […] The number of cells in each cell cycle compartment was expressed as a percentage of the total number of cells present. Analysis of apoptosis was determined using terminal deoxynucleotidyltransferase dUTP nick end labelling (TUNEL) using the APO-DIRECT kit from BD biosciences (catalog number 556381) according to the manufacturer's instructions.

[11] = tested on: Mcl-1 mRNA; test: Real time PCR of Mcl-1 mRNA in LP-1 cells; type: cell-based; conditions: normalised to 28S rRNA
[12] = tested on: Mcl-1; test: Western blotting of Mcl-1 expression, MDN cells; type: cell-based, human
Text: (§4) The downregulation of Mcl-1 preceded the induction of apoptosis.

[13] = tested on: Mcl-1; test: Western blotting of Mcl-1 expression, XG-1 cells; type: cell-based, human; conditions: XG-1, 30 μM, seven hours
Text: as §4

[14] = tested on: Mcl-1; test: Western blotting of Mcl-1 expression, XG-6 cells; type: cell-based, human; conditions: XG-6, 30 μM, seven hours
Text: as §4

[15] = tested on: RNA polII on Ser-2; test: Western blotting of RNA pol II phosphorylation, MDN cells; type: cell-based, human; conditions: 30 μM, seven hours
Text: as §4

[16] = tested on: RNA polII on Ser-2; test: Western blotting of RNA pol II phosphorylation, XG-1 cells; type: cell-based, human; conditions: XG-1, 30 μM, seven hours
Text: as §4

[17] = tested on: RNA polII on Ser-2; test: Western blotting of RNA pol II phosphorylation, XG-6 cells; type: cell-based, human; conditions: XG-6, 30 μM, seven hours
Text: as §4

[18] = tested on: RNA polymerase II at the serine 2 position of the CTD; test: Western blot, RNA polymerase II CTD phosphorylation in LP-1 cells; conditions: 30 μM CYC202

Chain of Cdk9/cyclin T1 (P50750 whole entry, species assumed): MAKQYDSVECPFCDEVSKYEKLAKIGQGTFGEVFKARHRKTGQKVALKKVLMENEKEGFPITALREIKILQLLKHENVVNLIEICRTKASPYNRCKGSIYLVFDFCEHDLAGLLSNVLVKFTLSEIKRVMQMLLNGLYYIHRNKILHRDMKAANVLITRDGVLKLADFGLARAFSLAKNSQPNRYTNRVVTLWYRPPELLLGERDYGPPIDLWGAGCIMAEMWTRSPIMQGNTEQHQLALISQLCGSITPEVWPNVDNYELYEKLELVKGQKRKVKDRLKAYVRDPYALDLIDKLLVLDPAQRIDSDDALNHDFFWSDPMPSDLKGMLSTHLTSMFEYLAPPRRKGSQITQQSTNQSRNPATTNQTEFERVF
Chain of Cdk9/cyclin T1 (O60563 whole entry partner, species assumed): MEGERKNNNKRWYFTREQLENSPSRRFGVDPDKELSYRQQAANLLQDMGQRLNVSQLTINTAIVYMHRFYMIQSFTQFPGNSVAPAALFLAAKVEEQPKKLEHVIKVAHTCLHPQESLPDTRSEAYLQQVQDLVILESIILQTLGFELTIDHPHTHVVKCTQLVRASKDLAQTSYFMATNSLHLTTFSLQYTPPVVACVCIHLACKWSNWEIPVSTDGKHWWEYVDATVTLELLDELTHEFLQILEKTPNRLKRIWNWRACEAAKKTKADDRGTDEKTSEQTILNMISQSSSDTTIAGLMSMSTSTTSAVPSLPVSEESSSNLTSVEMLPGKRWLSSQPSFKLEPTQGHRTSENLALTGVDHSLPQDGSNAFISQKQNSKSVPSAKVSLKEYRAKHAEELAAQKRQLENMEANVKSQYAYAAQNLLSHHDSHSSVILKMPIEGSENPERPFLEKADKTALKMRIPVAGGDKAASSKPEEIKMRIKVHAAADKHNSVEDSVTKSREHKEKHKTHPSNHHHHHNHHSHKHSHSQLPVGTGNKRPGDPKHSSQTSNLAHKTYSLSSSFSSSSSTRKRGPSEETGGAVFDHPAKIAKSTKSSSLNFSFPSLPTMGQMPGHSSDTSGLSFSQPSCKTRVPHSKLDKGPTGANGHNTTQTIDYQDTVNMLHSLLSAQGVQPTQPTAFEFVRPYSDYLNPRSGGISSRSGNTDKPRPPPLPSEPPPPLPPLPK

OC[C@H]1O[C@@H](n2cnc3cc(Cl)c(Cl)cc32)[C@H](O)[C@@H]1O [DRB, reference compound]
Mcl-1 levels ([1]; myeloma cells, 60 mM DRB): down regulates
Hdm2 levels ([2]; myeloma cells, 60 mM DRB): down regulates
phosphorylation of the CTD of RNA polymerase II [3]: inhibits phosphorylation

CC[C@H](CO)Nc1nc(NCc2ccccc2)c2ncn(C(C)C)c2n1 (racemic) [roscovitine, 2-[(1-ethyl-2-hydroxyethyl)amino]-6-benzylamine-9-isopropylpurine]
inhibition in vitro [4]: low μM concentrations

CC[C@H](CO)Nc1nc(NCc2ccccc2)c2ncn(C(C)C)c2n1 (single isomer, unassigned) [CYC202, 2-(1-R-hydroxymethylpropylamino)-6-benzylamino-9-isopurine]
% of apoptotic cells after 3 day treatment ([5]; 3 μM): 3%
% of apoptotic cells after 3 day treatment ([5]; 6 μM): 5%
% of apoptotic cells after 3 day treatment ([5]; 12 μM): 41%
induction of apoptosis at day 3 (apo2.7) ([5]; 12 μM): significant and strong induction of apoptosis
induction of apoptosis at day 3 (apo2.7) ([6]; XG1, 30 μM): significant and strong induction of apoptosis
% of apoptotic cells after 3 day treatment ([6]; XG-1, 7.5 μM): 2%
% of apoptotic cells after 3 day treatment ([6]; XG-1, 30 μM): 70%
% of apoptotic cells after 3 day treatment ([6]; XG-1, […] μM): 18%
% of apoptotic cells after 3 day treatment ([7]; XG-6, 7.5 μM): 4%
% of apoptotic cells after 3 day treatment ([7]; XG-6, 30 μM): 74%
induction of apoptosis at day 3 (apo2.7) ([7]; XG-6, 30 μM): significant and strong induction of apoptosis
% of apoptotic cells after 3 day treatment ([7]; XG-6, […] μM): 15%
number of apoptotic cells in the myeloma cell population [8]: 46%
non myeloma cell population induced on apoptosis [9]: 4%
induction of apoptosis (TUNEL) [10]: rapid apoptosis seen in the majority of cells by eight hours
levels of Mcl-1 protein ([1]; all cell lines studied, CYC202 treatment): rapidly reduced in all cell lines, by three hours
levels of Mcl-1 mRNA by real-time PCR [11]: reduced
levels of Hdm2 ([2]; myeloma cell lines, CYC202 treatment): also reduced
Mcl-1 expression ([12]; 30 μM of CYC202, seven hours): total downregulation of Mcl-1
Mcl-1 expression ([12]; 6 or […] μM of CYC202, seven hours): decrease of Mcl-1 expression
Mcl-1 expression [13]: strong downregulation of Mcl-1
Mcl-1 expression [14]: strong downregulation of Mcl-1
phosphorylation of RNA polII on Ser-2 [15]: total downregulation
phosphorylation of RNA polII on Ser-2 [16]: total downregulation
phosphorylation of RNA polII on Ser-2 [17]: total downregulation
dephosphorylation of RNA polymerase II at serine 2 of the CTD [18]: rapid dephosphorylation of RNA polymerase II at the serine 2 position of the CTD of RNA pol II, by one and a half hours

— patent publication US20070287718A1 (priority 2003, published 2007)
